Data taken from patent US20260015592A1, “NEDDYLATION-ACTIVATING ENZYME INHIBITORS AS VIRAL SENSITIZERS AND USES THEREOF” (priority 2022, published 2026).

Tested on: melanoma B16 tumors overexpressing OVA antigen (B16-OVA)
Settings: mouse, in vivo

For NS(=O)(=O)OC[C@@H]1C[C@H](n2ccc3c(N[C@H]4CCc5ccccc54)ncnc32)C[C@@H]1O [pevonedistat, ((1S,2S,4S)-4-(4-(((S)-2,3-dihydro-1H-inden-1-yl)amino)-7H-pyrrolo[2,3-d]pyrimidin-7-yl)-2-hydroxycyclopentyl) methyl sulfamate], the survival was “significantly prolonged survival”.
